Data on eight molecules can be found in PubChem BioAssay (NCI).

The structures appear in SMILES notation.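 These data come from cells grown in 96-well plates and exposed to compound for 48 hours at five concentrations. GI50 marks 50% less growth. Definition used: TGI = concentration required for complete inhibition of growth.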 A value given as a limit tells only on which side of the number the result lay.

Among the test systems are HL-60(TB) leukemia; NCI-H522 lung; HOP-92 NSCLC; PC-3 prostate; DU-145 prostate; T-47D breast; HCC-2998 colon; NCI-H23 lung; UACC-62 melanoma; SK-MEL-5 melanoma.
Assay in all cases: NCI-60 cell line screen, 48 h

`C[C@@H]1OC(O)[C@@H](F)[C@H](O)[C@@H]1O` (stereo not given in full): the GI50 in the assay on HL-60(TB) leukemia, in the assay on NCI-H522 lung, in the assay with HOP-92 NSCLC, in the assay with PC-3 prostate, in the assay with DU-145 prostate and in the assay with T-47D breast was over 100 µM in each case. The GI50 in the assay on HCC-2998 colon, in the assay with NCI-H23 lung, in the assay on UACC-62 melanoma and in the assay with SK-MEL-5 melanoma was over 100 µM in each case. Besides, the TGI with HL-60(TB) leukemia, in the assay on NCI-H522 lung, with HOP-92 NSCLC, in the assay on PC-3 prostate, in the assay on DU-145 prostate and in the assay with T-47D breast was over 100 µM in each case. Moreover, the TGI in the assay with HCC-2998 colon, in the assay on NCI-H23 lung, with UACC-62 melanoma and in the assay with SK-MEL-5 melanoma was over 100 µM throughout.

Consider `O=C1Nc2c(C(F)(F)F)cccc2[C@]1(c1ccc(O)cc1)c1ccc(OC(F)(F)F)cc1`, for which the GI50 is 13.7 µM in the assay with HL-60(TB) leukemia; 12.9 µM in the assay with NCI-H522 lung; 5.82 µM in the assay with HOP-92 NSCLC; 4.31 µM with PC-3 prostate; 11.7 µM with DU-145 prostate; 1.18 µM with T-47D breast. The GI50 is 14 µM in the assay with HCC-2998 colon, 11 µM in the assay with NCI-H23 lung, 11.9 µM in the assay on UACC-62 melanoma and 11.9 µM with SK-MEL-5 melanoma. Besides, the TGI with HL-60(TB) leukemia is 32.5 µM; with NCI-H522 lung, 28.5 µM; in the assay with HOP-92 NSCLC, 21.5 µM; in the assay with PC-3 prostate, 21.3 µM; in the assay with DU-145 prostate it was 23.9 µM; with T-47D breast, 17.9 µM. The TGI in the assay with HCC-2998 colon was determined as 29.8 µM; in the assay on NCI-H23 lung, 26.4 µM; with UACC-62 melanoma it was 25 µM; with SK-MEL-5 melanoma, 24.6 µM.

Regarding `Cc1ccc(NC(=O)c2cccc(N(C)C)c2)cc1NC(=O)c1ccc(O)cc1`, the GI50 in the assay with HL-60(TB) leukemia is 46.3 µM; in the assay with NCI-H522 lung, 37.1 µM; with HOP-92 NSCLC it was over 52.7 µM; in the assay on PC-3 prostate it was over 61.7 µM; in the assay on DU-145 prostate it was 62.6 µM; in the assay with T-47D breast, over 48.7 µM. For the same molecule, the GI50 in the assay with HCC-2998 colon is 74.8 µM; in the assay with NCI-H23 lung it was over 61.9 µM; in the assay on UACC-62 melanoma, 34 µM; in the assay with SK-MEL-5 melanoma, 28.5 µM. Besides, the TGI with HL-60(TB) leukemia is over 100 µM; with NCI-H522 lung it was over 88.2 µM; in the assay with HOP-92 NSCLC, over 100 µM; with PC-3 prostate it was over 100 µM; in the assay on DU-145 prostate, over 100 µM; in the assay on T-47D breast it was over 79.2 µM. The TGI is over 100 µM with HCC-2998 colon, over 100 µM in the assay with NCI-H23 lung, 99.4 µM in the assay on UACC-62 melanoma and over 65.8 µM in the assay on SK-MEL-5 melanoma.

Turning to `C=C1C(=O)O[C@H]2[C@H]1CC/C(COC(=O)c1ccc3ccccc3c1)=C\CC[C@@]1(C)O[C@@H]21`, the GI50 was 0.849 µM in the assay on HL-60(TB) leukemia; 0.739 µM in the assay with NCI-H522 lung; 0.301 µM in the assay on HOP-92 NSCLC; 1.24 µM in the assay with PC-3 prostate; 0.945 µM in the assay on DU-145 prostate; 1.03 µM in the assay on T-47D breast. Also, the GI50 with HCC-2998 colon is 1.75 µM; in the assay on NCI-H23 lung, 1.6 µM; in the assay with UACC-62 melanoma, 1.22 µM; in the assay with SK-MEL-5 melanoma, 1.63 µM. In addition, the TGI in the assay with HL-60(TB) leukemia was found to be 3.83 µM; in the assay on NCI-H522 lung, 2.2 µM; with HOP-92 NSCLC it was 1.81 µM; in the assay on PC-3 prostate, 2.79 µM; in the assay with DU-145 prostate it was 2.23 µM; in the assay on T-47D breast, 2.73 µM. Moreover, the TGI was 3.36 µM in the assay on HCC-2998 colon, 3.36 µM with NCI-H23 lung, 2.53 µM in the assay with UACC-62 melanoma and 3 µM with SK-MEL-5 melanoma.

Take `CN1CCN(C)C12C=c1ccccc1=CC21CC1`: the TGI was 46.1 µM in the assay with HL-60(TB) leukemia; 52.9 µM in the assay on NCI-H522 lung; 79.5 µM in the assay with HOP-92 NSCLC; over 96.3 µM with PC-3 prostate; over 100 µM with DU-145 prostate; over 86.2 µM in the assay with T-47D breast. For the same molecule, the TGI in the assay on HCC-2998 colon is 30.4 µM; with NCI-H23 lung, over 100 µM; in the assay on UACC-62 melanoma, 34 µM; in the assay with SK-MEL-5 melanoma, 51.1 µM.

Regarding `Oc1ccc(CN2CCC(N3CCCCC3)CC2)c2cccnc12`, the GI50 with HL-60(TB) leukemia is 6.86 µM; with NCI-H522 lung it was 3.43 µM; in the assay with HOP-92 NSCLC it was 4.51 µM; in the assay on PC-3 prostate it was 7.15 µM; in the assay with DU-145 prostate, 6.64 µM; with T-47D breast it was 23.6 µM. The GI50 is 64.2 µM in the assay with HCC-2998 colon, 6.05 µM in the assay on NCI-H23 lung, 4.87 µM in the assay on UACC-62 melanoma and 15.8 µM with SK-MEL-5 melanoma. The TGI was 46.7 µM in the assay with HL-60(TB) leukemia; 43.9 µM in the assay on NCI-H522 lung; over 100 µM with HOP-92 NSCLC; over 100 µM in the assay on PC-3 prostate; over 100 µM with DU-145 prostate; over 100 µM in the assay on T-47D breast. Also, the TGI with HCC-2998 colon was over 100 µM; in the assay with NCI-H23 lung it was over 100 µM; with UACC-62 melanoma, 67.5 µM; in the assay on SK-MEL-5 melanoma, 75.9 µM.

`COC(=O)[C@]12CC[C@@H](C)[C@H](C)[C@@H]1C1=CC[C@@H]3[C@@]4(C)C/C(=N\O)[C@H](O)[C@@]5(C)COC(=C45)C[C@@]3(C)[C@]1(C)CC2`: the GI50 with HL-60(TB) leukemia is 3.64 µM; in the assay with NCI-H522 lung, 14.1 µM; in the assay with HOP-92 NSCLC it was 2.98 µM; in the assay on PC-3 prostate, 2.34 µM; in the assay on DU-145 prostate, 8.57 µM; with T-47D breast, 9.3 µM. Further, the GI50 in the assay on HCC-2998 colon is 11.5 µM; in the assay on NCI-H23 lung, 6.89 µM; with UACC-62 melanoma, 12.6 µM; with SK-MEL-5 melanoma, 13.1 µM. For the same molecule, the TGI worked out at 13.2 µM with HL-60(TB) leukemia; 30.1 µM in the assay on NCI-H522 lung; 10.3 µM in the assay with HOP-92 NSCLC; 6.51 µM in the assay with PC-3 prostate; 22.8 µM in the assay on DU-145 prostate; 25.7 µM in the assay on T-47D breast. In addition, the TGI was 24.9 µM in the assay with HCC-2998 colon, 22.3 µM with NCI-H23 lung, 27.1 µM in the assay on UACC-62 melanoma and 25.8 µM in the assay on SK-MEL-5 melanoma.

As for `CC/C(=C(/c1ccc(O)cc1)c1ccc(OCCNC)cc1)c1ccccc1`, the GI50 was 2.03 µM with HL-60(TB) leukemia; 1.87 µM in the assay with NCI-H522 lung; 1.18 µM with HOP-92 NSCLC; 1.95 µM in the assay on PC-3 prostate; 2.63 µM in the assay with DU-145 prostate; 1.34 µM in the assay on T-47D breast. Further, the GI50 with HCC-2998 colon is 1.9 µM; with NCI-H23 lung, 2.6 µM; in the assay with UACC-62 melanoma it was 1.8 µM; in the assay on SK-MEL-5 melanoma, 1.67 µM. Moreover, the TGI was 4.55 µM with HL-60(TB) leukemia; 3.68 µM in the assay on NCI-H522 lung; 3.72 µM with HOP-92 NSCLC; 5.45 µM in the assay on PC-3 prostate; 6.81 µM with DU-145 prostate; 4.68 µM in the assay on T-47D breast. In addition, the TGI with HCC-2998 colon worked out at 3.46 µM; with NCI-H23 lung, 7.25 µM; in the assay with UACC-62 melanoma, 3.54 µM; in the assay with SK-MEL-5 melanoma, 3.09 µM.
